Values quoted from earlier work, collected in patent US12247090B2, “Enzyme-mediated free radical initiating systems for the production of hydrogels and controlled radical polymerization processes” (Duke University, priority 2021, dated 2025).

Test system: rat
Conditions: in vivo, po

Structure (SMILES): CC(=O)CC(C)=O [ACAC, acetylacetone]
- LD50: 55 mg/kg
